Reference: patent US6096752A, “Method for the preparation of tertiary amines, a compound useful therefor and alpha-2-receptor active tetrahydroisoquinoline derivatives” (priority 1998, dated 2000)

Molecular target: T1, human α2A (α2 -C10)-adrenoceptor (Homo sapiens, UniProt P08913)
T1 construct: expressed in transfected cells; host or cells: S115 cells (recombinant mammalian S115 cell line), crude particulate homogenate
T1 sequence (P08913 1-465): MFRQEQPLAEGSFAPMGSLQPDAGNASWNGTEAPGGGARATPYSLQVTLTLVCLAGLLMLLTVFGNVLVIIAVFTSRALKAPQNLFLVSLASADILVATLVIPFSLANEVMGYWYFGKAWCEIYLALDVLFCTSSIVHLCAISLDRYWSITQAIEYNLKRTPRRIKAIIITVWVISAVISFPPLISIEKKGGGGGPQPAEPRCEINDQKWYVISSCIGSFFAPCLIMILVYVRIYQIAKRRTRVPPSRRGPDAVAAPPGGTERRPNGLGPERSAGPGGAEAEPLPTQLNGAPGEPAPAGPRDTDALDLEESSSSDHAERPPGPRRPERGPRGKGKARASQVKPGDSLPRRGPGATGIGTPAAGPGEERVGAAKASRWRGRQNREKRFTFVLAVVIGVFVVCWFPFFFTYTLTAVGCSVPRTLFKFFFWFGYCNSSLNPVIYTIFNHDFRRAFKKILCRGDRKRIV
Assay: [3H]-rauwolscine radioligand receptor binding (competition) assay, α2A-adrenoceptor
Details: recombinant mammalian S115 cell line; 1 nM [3H]-rauwolscine; 50 mM KH2PO4 pH 7.5; 30 min at 25° C.; read-out: α2A aff (Ki values)
Procedure: The affinity of the test compounds on the α2 -adrenoceptor was established using the recombinant mammalian S115 cell line expressing the human α2A (α2 -C10)-adrenoceptor (7) in a radioligand receptor binding assay. The cells were harvested and suspended in 30 v/w of 50 mM Tris with 5 mM EDTA (pH 7.5 at 4° C.) and homogenized in Teflon-glass homogenizer. Cell homogenate was then centrifuged twice at 47,800×g (Sorvall RC-5C) for 30 min at 4° C. with re-suspension by two strokes in Tris/EDTA buffer. The final pellet was re-suspended in ten v/w of incubation buffer (50 mM KH2 PO4 buffer, pH 7.5 at 25° C.) and distributed in aliquots to be stored at -80° C. for later use.
In a competition binding experiment, the radioligands were incubated at 1 nM [^3 H]-rauwolscine with the cell suspension (20-50 μg of total protein per tube) with or without presence of a test compound in 50 mM KH2 PO4 (pH 7.5 at 25° C.) in a total volume of 0.25 ml. Non-specific binding of the radioligand was determined using 0.1 mM oxymetazoline. After a 30 min incubation at 25° C., incubation was terminated by rapid filtration through GF/B filters using a cell harvester. Inhibition experiments were analysed using a non-linear regression curve-fitting computer program to obtain Ki values.

Row | SMILES | Ki
1 | CN1CCc2c(cccc2OCCCCCC#N)C1 [Compound 5b, 5-(5-cyano-1-pentyloxy)-2-methyl-1,2,3,4-tetrahydroisoquinoline] | 1040 nM
2 | CN1CCc2cc(OCCCCCC#N)ccc2C1 [Compound 5c, 6-(5-cyano-1-pentyloxy)-2-methyl-1,2,3,4-tetrahydroisoquinoline] | 3710 nM
3 | CN1CCc2c(cccc2OCc2ccc(F)c(F)c2)C1 [Compound 5d, 5-(3,4-difluorophenylmethoxy)-2-methyl-1,2,3,4-tetrahydroisoquinoline] | 318 nM
4 | CN1CCc2cc(OCc3ccc(F)c(F)c3)ccc2C1 [Compound 5e, 6-(3,4-difluorophenylmethoxy)-2-methyl-1,2,3,4-tetrahydroisoquinoline] | 1430 nM
5 | CN1CCc2cccc(OCc3ccc(F)c(F)c3)c2C1 [Compound 5f, 8-(3,4-difluorophenylmethoxy)-2-methyl-1,2,3,4-tetrahydroisoquinoline] | 490 nM
6 | CCCCOc1cccc2c1CCN(CCC)C2 [Compound 5g, 5-butoxy-2-propyl-1,2,3,4-tetrahydroisoquinoline] | 264 nM
7 | CN1CCc2c(cccc2OCC2CCCCC2)C1 [Compound 5h, 5-cyclohexylmethoxy-2-methyl-1,2,3,4-tetrahydroisoquinoline] | 750 nM
8 | CN1CCc2cc(OCC3CCCCC3)ccc2C1 [Compound 5i, 6-cyclohexylmethoxy-2-methyl-1,2,3,4-tetrahydroisoquinoline] | 977 nM
9 | CN1CCc2cccc(OCC3CCCCC3)c2C1 [Compound 5j, 8-cyclohexylmethoxy-2-methyl-1,2,3,4-tetrahydroisoquinoline] | 173 nM
10 | CCCCCCCCCCCCCCOc1cccc2c1CCN(C)C2 [Compound 5k, 5-tetradecanyloxy-2-methyl-1,2,3,4-tetrahydroisoquinoline] | 6480 nM
11 | CCCCCCCCCCCCCCOc1ccc2c(c1)CCN(C)C2 [Compound 5l, 6-tetradecanyloxy-2-methyl-1,2,3,4-tetrahydroisoquinoline] | 266 nM
12 | CCCCCCCCCCCCCCOc1cccc2c1CN(C)CC2 [Compound 5m, 8-tetradecanyloxy-2-methyl-1,2,3,4-tetrahydroisoquinoline] | 25000 nM
